Results from patent US5112866A, “Ethanesulfonamide derivatives” (Ortho Pharmaceutical Corporation, priority 1989, dated 1992).
Where a name gives a salt, the structure may show the parent alone. Read-outs that look alike come from different tables or passages of the source.

What was measured:
[1] = tested on: Rabbit Isolated Parietal Cells; assay: Inhibition of 14C-aminopyrine accumulation in stimulated rabbit isolated parietal cells; type: cell-based; settings: Oryctolagus cuniculus, 37° C.
Excerpt: Pharmacology of the Ethanesulfonamide Compounds - Rabbit Isolated Parietal Cells
Parietal cells were isolated from the fundic mucosa of rabbit stomachs by a four-stage collagenase digestion Process. The supernatant fraction from the last two stages of this Process contained the individual parietal cells. This cell suspension was centrifuged and reconstituted in a modified Hank's buffer to contain 2-3×10^6 cells/ml. […] The accumulation is stimulated by histamine and is blocked by H2 antagonists. Accumulation of ^14 C-AP is also stimulated by dibutyryl cAMP (dbcAMP). The cells were incubated with 0.5×10^6 cpm ^14 C-AP, with various concentrations of histamine or dbcAMP, […] isobutylmethylxanthine, and test compound added in a 20 μl volume of buffer or dimethylsulfoxide. The flasks were incubated in a shaking water bath at 37° C. Two 0.5 ml aliquots were then taken from each flask and cell pellets were collected by centrifugation. The pellets were solubilized with Protosol (NEN) and radioactivity determined by liquid scintillation spectrometry.
The concentration of compound required to inhibit ^14 C-AP accumulation in the stimulated parietal cell by 50% (IC50) was determined.

Gastric Secretion = assay: Inhibition of Gastric Secretion in Rat (pylorus ligated); type: in vivo, rat (male Charles River); settings: Dose 40 MPK, intraduodenal, four hours after pylorus ligation
Description: Inhibition of Gastric Secretion in Rat
Male Charles River rats weighing 150-300 grams were deprived of food but not water for 18-24 hours prior to use. Water was withheld during the experiment. The rats were weighed, anesthetized with ether and the pylorus ligated according to the method of Shay, H. et al., Gastroenterol. 26, 906 (1954). Test compounds were suspended in a 0.5% aqueous solution of methylcellulose (15 cps) and administered intraduodenally (i.d.) at the time of ligation. The rats were housed two per cage and sacrificed with CO2 four hours after ligation. The stomachs were removed and contents emptied into a graduated centrifuge tube. The tubes were centrifuged, the volume of gastric juice recorded, and any samples obviously contaminated by feces, food or blood eliminated. A 1 ml aliquot of gastric juice was titrated with 0.1 N NaOH to a pH of 7.0-7.4.
The volume of gastric juice secreted, the acid concentration, and the product of the volume times the concentration, i.e., the total amount of acid secreted, were statistically compared by a student's t-test using the pooled error variance.

[2] = tested on: Mouse osteoblastic-line cells (MC3T3-El); assay: Mouse Osteoblast-line Cell Proliferation (3H-thymidine); type: cell-based; settings: 0.1% FBS
Description: Pharmacology of the Ethenesulfonyl Fluoride Compounds--In Vitro Mouse Osteoblast-line Cell Proliferation
Reagents: Mouse osteoblastic-line cells (MC3T3-El) were plated in Dulbeccos Modified Eagles Medium (DMEM) with 25 mM Hepes Buffer, L-Glutamine, D-Glucose(4.5 gm/1) supplemented with 10% fetal bovine sera, Penicillin (100 units/ml) and Streptomycin ([…]) (Penicillin-Streptomycin liquid) and sodium pyruvate (10 μM final concentration). ^3 H-Thymidine (6.7 Ci/mmole) was diluted in DMEM media without FBS and filter sterilized. An aliquot of this solution was delivered to each culture well to a final concentration of ^3 H-thymidine of 0.4 μCi per well (2 μCi/ml).
Test Preparations: Solutions of the test compound were made on the day before incubation. These compounds were solubilized in either ethanol or DMSO at a concentration of 100 mM containing 0.1% FBS. The solutions were filter sterilized and then sterile serial dilutions were performed with DMEM media containing 0.1% FBS.
Osteoblast line cells were plated into 96 well culture plates, 1600 cells in 100 μL per well in DMEM with 25 mM Hepes Buffer, L-Glutamine, D-Glucose (4.5 gm/L) supplemented with 10% fetal bovine sera, Penicillin (100 units/mL) and Streptomycin (100 μg/mL) and sodium Pyruvate (10 μM final concentration). The media was replaced with DMEM containing no FBS and the cells were then incubated for an additional 24 hours. The following day, test compounds were added and screened at concentrations ranging from 10^-10 to 10^-5 M in the Presence of 0.1% FBS. The cells were then incubated an additional 20 hours. At this time 0.4 μ/Ci of 3H-thymidine was added to each culture well and the cells were incubated an additional 4 hours. The cells were then harvested with a Skatron Cell Harvester onto a glass fiber filter and washed with water, %5 trichloroacetic acid (TCA) and then 95% ethanol. The filters were then processed and counted on the LKB beta plate scintillation counter.

[3] = 14C-AP accumulation stimulated by dibutyryl cAMP, read-out: IC50 (dbcAMP)
[4] = 14C-AP accumulation stimulated by histamine, read-out: IC50 (H)

Compound	IC50 [1, 3] [nM]	IC50 [1, 4] [nM]	% Reduction of Total Acid Output (Gastric Secretion) [%]	Mouse Osteoblast-line Cell Proliferation [Expressed as a Percent of Control] ([2]; 0.001 μM)	Mouse Osteoblast-line Cell Proliferation [Expressed as a Percent of Control] ([2]; 0.01 μM)	Mouse Osteoblast-line Cell Proliferation [Expressed as a Percent of Control] ([2]; 0.1 μM)	Mouse Osteoblast-line Cell Proliferation [Expressed as a Percent of Control] ([2]; 1.0 μM)	Mouse Osteoblast-line Cell Proliferation [Expressed as a Percent of Control] ([2]; 10 μM)
O=S(=O)(CCNc1ccc(Cl)c(Cl)c1)NCCCOc1cccc(CN2CCCCC2)c1 [Example 1]	130	370	47.9					
O=S(=O)(CCNc1ccc(F)cc1)NCCCOc1cccc(CN2CCCCC2)c1 [Example 2, 2-[(4-Fluorophenyl)amino]-N-[3-[3-(piperidinomethyl)phenoxy]propyl]ethanesulfonamide]	1820	920	22.1					
CCOC(=O)c1ccc(NCCS(=O)(=O)NCCCOc2cccc(CN3CCCCC3)c2)cc1 [Example 3]	2300	390	25.6					
O=[N+]([O-])c1ccc(NCCS(=O)(=O)NCCCOc2cccc(CN3CCCCC3)c2)cc1 [Example 4, 2-[(4-Nitrophenyl)amino]-N-[3-[3-(piperidinomethyl)phenoxy]propyl]ethanesulfonamide]	3700	120	30.8					
O=S(=O)(CCNc1ccc(Br)cc1)NCCCOc1cccc(CN2CCCCC2)c1 [Example 5]	860	370						
O=S(=O)(CCNc1ccccc1)NCCCOc1cccc(CN2CCCCC2)c1 [Example 6, 2-(Phenylamino)-N-[3-[3-(piperidinomethyl)phenoxy]propyl]ethanesulfonamide]	10000	1000						
CC(C)Oc1ccc(NCCS(=O)(=O)NCCCOc2cccc(CN3CCCCC3)c2)cc1 [Example 7, 2-[[4-(1-Methylethony)Phenyl]amino]-N-[3-[3-(piperidinomethyl)Phenoxy]propyl]ethanesulfonamide]	2000	840						
CCCCCOc1ccc(NCCS(=O)(=O)NCCCOc2cccc(CN3CCCCC3)c2)cc1 [Example 8, 2-[(4-Pentoxyphenyl)amino]-N-[3-[3-(piperidinomethyl)phenoxy]propyl]ethanesulfonamide]	370	330						
CCOC(=O)c1ccc(NCCS(=O)(=O)F)cc1 [Example 16]				132.8% of Control	142.1% of Control	127.5% of Control	136.5% of Control	154.7% of Control
COc1ccc(NCCS(=O)(=O)F)cc1 [Example 17, Monohydrochloride]				165.5% of Control	148.9% of Control	129.1% of Control	115.9% of Control	108.8% of Control
